Series [1] concerns Moloney murine sarcoma virus (MSV). Briefly: MSV-induced C3H cell transformation. Format: cell-based. Conditions: for EC50: Moloney murine sarcoma virus, C3H. Here is the method: For transformation of C3H mouse embryo cells by Molo ney murine sarcoma virus (MSV), confluent monolayers of C3H cells in 1 ml wells of Tissue Culture Cluster plates were infected wiht 150 foci-forming units of MSV during 90 min, whereafter medium was replaced by 1 ml fresh culture medium containing different concentrations of test compound. After 6-7 days incubation at 37°C, transformation of the cell cultures was monitored microscopically.
(§1) A series of novel 2,6-diaminopurine and guanine 2′,3′-dideoxynucleoside analogues in which the 2′,3′-dideoxyribose moiety is substituted by a 3′-fluoro group, or replaced by arabinose or 2′-deoxyxylose were evaluated for their effect on the transformation of C3H mouse embryo cells by Moloney murine sarcoma virus (MSV) (Table 1) and the cytopathogenicity induced by HIV in human T4 lymphocyte MT4 cells (Table 1, Fig. 2).

Series [2] deals with HIV (HTLV-IIIB). The conditions noted are these: earlier report, Balzarini et al (1987b); read-out: 50% effective dose (ED₅₀), inhibition of HIV-replication in MT4 cells; cited from earlier work.
Series [3] concerns MT4. The series can be described thus: Cytostatic effect against MT4 cells. Format: cell-based. The conditions noted are these: Homo sapiens, read-out: Inhibitory dose-50 MT4. As for the experimental part: (§2) The cultivation of Raji, Molt/4F, CEM, H9, HUT-78 and MT4 cells has been described in Balzarini, J, et al, Biochem. Biophys. Res. Commun. 136:64-71 (1986b) and Pauwels, R. et al, J. Virol. Methods, 16:171-185 (1987).
(§3) The cytostatic effects of the compounds listed in Table 1 were examined against several human B-lymphoblast Raji, T-lymphoblast Molt/4F and T-lymphocyte CEM, H9 and MT4 cell lines (Table 2). […] In no case is the ID₅₀ of the compounds for tumor cell proliferation lower than 60 µM. FddGuo is slightly more cytostatic than FddDAPR (ID₅₀ : 190 to 228 µM, and 233 to >1000 µM, respectively). XylodDAPR and araDAPR are devoid of any anti-cellular activity, even when tested at a concentration as high as 1000 µM.

The subject of series [4] is H9. The series can be described thus: Cytostatic effect against H9 cells. Format: cell-based. The conditions noted are these: Homo sapiens, read-out: Inhibitory dose-50 H9. As for the experimental part: as §2, §3
In series [5] the target is T1, beef intestine adenosine deaminase (ADA) (Bos taurus, UniProt P56658).
T1 construct: Kinetic properties of beef intestine adenosine deaminase for 2,6-diaminopurine 2′,3′-dideoxynucleoside analogues; purchased Boehringer Mannheim, Mannheim, West Germany; host or cells: beef intestine (tissue-derived enzyme)
T1 sequence (P56658 1-363): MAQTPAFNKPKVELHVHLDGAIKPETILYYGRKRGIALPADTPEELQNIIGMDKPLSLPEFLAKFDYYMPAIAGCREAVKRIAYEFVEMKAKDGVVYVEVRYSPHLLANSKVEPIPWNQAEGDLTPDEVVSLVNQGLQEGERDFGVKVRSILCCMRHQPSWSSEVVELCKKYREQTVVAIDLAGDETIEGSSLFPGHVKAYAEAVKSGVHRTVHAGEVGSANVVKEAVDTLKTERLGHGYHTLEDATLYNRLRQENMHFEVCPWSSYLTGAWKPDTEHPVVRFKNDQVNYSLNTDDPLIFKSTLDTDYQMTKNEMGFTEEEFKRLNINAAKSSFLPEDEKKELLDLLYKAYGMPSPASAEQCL
The conditions noted are these: data taken from Balzarini, J. et al (1987c); cited from earlier work.

Series [6] deals with HIV (HTLV-IIIB). Briefly: HIV-induced cytopathogenicity in MT4 cells (viable cell count by trypan blue exclusion after 5 days). The conditions noted are these: for EC50: Human immunodeficiency virus 1, IIIB. Format: cell-based. As for the experimental part: (§4) For the determination of the cytopathic effect of HIV in human T-lymphocyte MT4 cells, MT4 cells, subcultured one day before the start of the experiment, were adjusted at 5 x 10⁵ cells/ml and infected with HIV (HTLV-IIIB) at 100 CCID₅₀/ml. Then, 100 µl of the infected cell suspension was brought into wells of a microtiter tray containing 100 µl of various dilutions of the test compounds. After 5 days incubation at 37°C, the number of viable cells was recorded microscopically in a hematocytometer by trypan blue exclusion.
as §1
For orientation: Protection from cytopathic effect is a common read-out in antiviral testing.

Series [7] has as its system T-lymphocyte CEM. The series can be described thus: Cytostatic effect against CEM cells. It counts as cell-based. The conditions noted are these: Homo sapiens, read-out: Inhibitory dose-50 CEM.
Series [8] can be described thus: in vitro. Format: cell-based. Conditions: human, mt4 cells. Here is the method: as §4
Its anti-HIV activity is also higher than that found for its corresponding 2,6-diaminopurine derivative FddDAPR.

Series [9] has as its system MT4. The series can be described thus: Cytostatic effect against MT4 cells. It counts as cell-based. The conditions noted are these: Homo sapiens, read-out: Inhibitory dose-50 MT4. The source holds these as a separate data set.
The target in series [10] is T1, beef intestine adenosine deaminase (ADA). The series can be described thus: Substrate kinetics for deamination by adenosine deaminase. Format: biochemical. From the text:
All four ddDAPR analogues were examined for their susceptibility to deamination by beef intestine adenosine de aminase (ADA).

Series [11] concerns T-lymphocyte CEM. The series can be described thus: Cytostatic effect against CEM cells. It counts as cell-based. The conditions noted are these: Homo sapiens, CCRF-CEM, read-out: Inhibitory dose-50 CEM. Here is the method: as §2, §3
The subject of series [12] is B-lymphoblast Raji. Briefly: Cytostatic effect against Raji cells. It counts as cell-based. The conditions noted are these: Homo sapiens, read-out: Inhibitory dose-50 Raji. Here is the method:
as §2, §3

Series [13] relates to T-lymphoblast Molt/4F. The series can be described thus: Cytostatic effect against Molt/4F cells. It counts as cell-based. The conditions noted are these: Homo sapiens, read-out: Inhibitory dose-50 Molt/4F. The source says: The cultivation of Raji, Molt/4F, CEM, H9, HUT-78 and MT4 cells has been described in Balzarini, J, et al, Biochem. Biophys. Res. Commun.
The cytostatic effects of the compounds listed in Table 1 were examined against several human B-lymphoblast Raji, T-lymphoblast Molt/4F and T-lymphocyte CEM, H9 and MT4 cell lines (Table 2).

A short description of series [14]: in vitro. It counts as cell-based. The conditions noted are these: mouse, c3h cells.
Where [15] appears, read: presence of DCF (10 µM preincubation).

Where two headings read alike, the source gives them in different places. Marks after values point to notes of the source that are not given here.

For `Nc1nc(N)c2ncn([C@H]3CC[C@@H](CO)O3)c2n1` [ddDAPR, 2,6-Diamino-9-(2,3-dideoxy-β-D-glycero-pentofuranosyl)purine], the EC50 in series [1] (C3H cells, 6-7 days at 37°C, read-out: MSV-induced C3H cell transformation ED₅₀) is 19 µM; in [1] (presence of 10 µM DCF (2′-deoxycoformycin), read-out: Effective dose-50 MSV-induced C3H cell transformation), 84 µM; in series [1] (without DCF (Table 3), read-out: Effective dose-50 MSV-induced C3H cell transformation) it was 23 µM; in series [2], 2.5 to 3.6 µM; in series [6] (MT4, 120 h, MT4 cells, 5 days at 37°C, read-out: HIV-induced cytopathogenicity in MT4 cells ED₅₀) it was 3.8 µM; in series [6] (MT4, presence of 10 µM DCF (2′-deoxycoformycin), read-out: Effective dose-50 HIV-induced cytopathogenicity in MT4 cells), 13 µM. Moreover, the EC50 in series [6] (MT4, without DCF (Table 3), read-out: Effective dose-50 HIV-induced cytopathogenicity in MT4 cells) was 3.8 µM. Further, in series [1] (selectivity index, ratio of 50% cytotoxic dose to 50% antivirally effective dose), the “MSV-induced C3H cell transformation S.I.” value is on record as “≧ 11”. Also, the IC50 in [3] is 644 µM; in series [4], 466 µM; in [7] (setting [15]), > 1000 µM; in series [7] (without DCF (Table 4)), 128 µM; in series [9] (MT4, presence of DCF (10 µM preincubation)), > 1000 µM; in series [9] (MT4, without DCF (Table 4)) it was > 1000 µM. The IC50 was 125 µM in series [11], 324 µM in series [12], > 1000 µM in series [13] (setting [15]) and 220 µM in series [13] (without DCF (Table 4)). For the same molecule, in series [5], the Km (usually the substrate concentration at which the rate is half of its maximum) was 29 µM. In addition, the Vmax in series [5] is given as 8.2^a µmole/mg proten/min. Moreover, the “HIV-induced cytopathogenicity in MT4 cells S.I.” value in [6] (selectivity index, ratio of 50% cytotoxic dose to 50% antivirally effective dose, 7200 min) is on record as 106. Also, half-maximal cytotoxicity in series [8] (CC50 at 120 h) was put at 404 µM. In series [10], the “Vmax relative to that observed for Ado” value was found to be 3%. Also, the CC50 – broadly, the concentration giving 50% cytotoxicity – in [14] is ≥ 200 µM.

Values taken from patent publication EP0311107A2, “Anti-HIV active 3'-fluoro-purine-2',3'-dideoxyribosides” (priority 1987, dated 1989).
